Assay results taken from patent US11053204B2, “Pyrimidinyloxy benzene derivatives as herbicides” (FMC Corporation, priority 2015, dated 2021).

Key:
Format in all cases: in vivo
[1] = tested on: oat, wild (wild oat Avena fatua); experiment: Test C preemergence, plant response rating
kochia (Kochia scoparia) = experiment: Test C postemergence, plant response rating; conditions: for Kochia plant response rating: scale 0 to 100 (0 no effect, 100 complete control)
Procedure, shortened: (§1)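 Visual injury score, 0 = no effect, 100 = complete control, assigned against untreated controls after 13 to 15 d in the greenhouse. Compounds were applied in a surfactant-containing non-phytotoxic solvent mix, preemergence to seeded loam/sand or silt loam soil, or postemergence to 1- to 4-leaf plants (2 to 18 cm).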

[2] = tested on: wheat (winter wheat, Triticum aestivum); experiment: Test C postemergence, plant response rating
Procedure, shortened: as §1

[3] = tested on: chickweed (common chickweed, Stellaria media); experiment: Test C postemergence, plant response rating; conditions: for Chickweed plant response rating: scale 0 to 100 (0 no effect, 100 complete control)
Procedure, shortened: as §1

[4] = tested on: lambsquarters (Chenopodium album); experiment: Test C postemergence, plant response rating; conditions: for Lambsquarters plant response rating: scale 0 to 100 (0 no effect, 100 complete control)
Procedure, shortened: as §1

[5] = tested on: waterhemp (common waterhemp, Amaranthus rudis); experiment: Test C postemergence, plant response rating
Procedure, shortened: as §1

[6] = tested on: foxtail, giant (giant foxtail, Setaria faberii); experiment: Test C postemergence, plant response rating; conditions: for Foxtail, Giant plant response rating: scale 0 to 100 (0 no effect, 100 complete control)
Procedure, shortened: as §1

[7] = tested on: blackgrass (Alopecurus myosuroides); experiment: Test C postemergence, plant response rating; conditions: for Plant response rating, Blackgrass: scale 0 to 100; for Blackgrass plant response rating: scale 0 to 100 (0 no effect, 100 complete control)
Procedure, shortened: as §1

[8] = tested on: oat, wild (wild oat Avena fatua); experiment: Test C postemergence, plant response rating; conditions: for Oat, Wild plant response rating: scale 0 to 100 (0 no effect, 100 complete control)
Procedure, shortened: as §1

[9] = tested on: velvetleaf (Abutilon theophrasti); experiment: Test C postemergence, plant response rating
Procedure, shortened: as §1

soybean (Glycine max) = experiment: Test C postemergence, plant response rating; conditions: for Soybean plant response rating: scale 0 to 100 (0 no effect, 100 complete control)
Procedure, shortened: as §1

[10] = tested on: oilseed rape (Brassica napus); experiment: Test C postemergence, plant response rating; conditions: for Oilseed Rape plant response rating: scale 0 to 100 (0 no effect, 100 complete control)
Procedure, shortened: as §1

[11] = tested on: morningglory (Ipomoea coccinea); experiment: Test C postemergence, plant response rating; conditions: for Morningglory plant response rating: scale 0 to 100 (0 no effect, 100 complete control)
Procedure, shortened: as §1

corn (Zea mays) = experiment: Test C postemergence, plant response rating; conditions: for Corn plant response rating: scale 0 to 100 (0 no effect, 100 complete control)
Procedure, shortened: as §1

[12] = tested on: ragweed (common ragweed, Ambrosia elatior); experiment: Test C postemergence, plant response rating; conditions: for Ragweed plant response rating: scale 0 to 100 (0 no effect, 100 complete control)
Procedure, shortened: as §1

[13] = tested on: nutsedge, yellow (yellow nutsedge, Cyperus esculentus); experiment: Test C postemergence, plant response rating; conditions: for Nutsedge, Yellow plant response rating: scale 0 to 100 (0 no effect, 100 complete control)
Procedure, shortened: as §1

[14] = tested on: galium (catchweed bedstraw, Galium aparine); experiment: Test C postemergence, plant response rating; conditions: for Galium plant response rating: scale 0 to 100 (0 no effect, 100 complete control)
Procedure, shortened: as §1

[15] = tested on: surinam grass (Brachiaria decumbens); experiment: Test C preemergence, plant response rating
[16] = tested on: wild poinsettia (Euphorbia heterophylla); experiment: Test C preemergence, plant response rating
[17] = tested on: pigweed, palmer (palmer pigweed, Amaranthus palmeri); experiment: Test C preemergence, plant response rating
[18] = tested on: windgrass (Apera spica-venti); experiment: Test C preemergence, plant response rating
[19] = 125 g ai/ha, scale 0 to 100 (0 no effect, 100 complete control)

SMILES: FC(F)(F)CCCCc1c(Br)cccc1Oc1ncc(Cl)cn1 [Compound 138]
- Plant response rating, Oat, Wild ([1]; 31 g ai/ha, scale 0 to 100): 0
- Plant response rating, Oat, Wild ([1]; 62 g ai/ha, scale 0 to 100): 5
- Plant response rating, Oat, Wild ([1]; 125 g ai/ha, scale of 0 to 100): 30
- Plant response rating, Kochia (kochia (Kochia scoparia); 16 g ai/ha, scale of 0 to 100): 75
- Plant response rating, Kochia (kochia (Kochia scoparia); 31 g ai/ha, scale 0 to 100): 85
- Kochia plant response rating (kochia (Kochia scoparia); 62 g ai/ha): 95
- Kochia plant response rating (kochia (Kochia scoparia); 125 g ai/ha): 98
- Plant response rating, Wheat ([2]; 16 g ai/ha, scale of 0 to 100): 5
- Plant response rating, Wheat ([2]; 31 g ai/ha, scale 0 to 100): 5
- Wheat plant response rating [2, 19]: 35
- Plant response rating, Chickweed ([3]; 16 g ai/ha, scale of 0 to 100): 75
- Plant response rating, Chickweed ([3]; 31 g ai/ha, scale 0 to 100): 85
- Chickweed plant response rating ([3]; 62 g ai/ha): 100
- Chickweed plant response rating ([3]; 125 g ai/ha): 100
- Plant response rating, Lambsquarters ([4]; 16 g ai/ha, scale of 0 to 100): 65
- Plant response rating, Lambsquarters ([4]; 31 g ai/ha, scale 0 to 100): 90
- Lambsquarters plant response rating ([4]; 62 g ai/ha): 95
- Lambsquarters plant response rating ([4]; 125 g ai/ha): 100
- Plant response rating, Waterhemp ([5]; 16 g ai/ha, scale of 0 to 100): 98
- Plant response rating, Waterhemp ([5]; 31 g ai/ha, scale 0 to 100): 98
- Waterhemp plant response rating [5, 19]: 100
- Plant response rating, Foxtail, Giant ([6]; 16 g ai/ha, scale of 0 to 100): 10
- Plant response rating, Foxtail, Giant ([6]; 31 g ai/ha, scale 0 to 100): 20
- Foxtail, Giant plant response rating ([6]; 62 g ai/ha): 30
- Foxtail, Giant plant response rating ([6]; 125 g ai/ha): 65
- Plant response rating, Blackgrass ([7]; 16 g ai/ha): 5
- Plant response rating, Blackgrass ([7]; 31 g ai/ha): 35
- Blackgrass plant response rating ([7]; 62 g ai/ha): 10
- Blackgrass plant response rating ([7]; 125 g ai/ha): 65
- Plant response rating, Oat, Wild ([8]; 16 g ai/ha, scale of 0 to 100): 10
- Plant response rating, Oat, Wild ([8]; 31 g ai/ha, scale 0 to 100): 55
- Oat, Wild plant response rating ([8]; 62 g ai/ha): 50
- Oat, Wild plant response rating ([8]; 125 g ai/ha): 70
- Plant response rating, Velvetleaf ([9]; 16 g ai/ha, scale of 0 to 100): 10
- Plant response rating, Velvetleaf ([9]; 31 g ai/ha, scale 0 to 100): 35
- Velvetleaf plant response rating [9, 19]: 75
- Plant response rating, Soybean (soybean (Glycine max); 16 g ai/ha, scale of 0 to 100): 35
- Plant response rating, Soybean (soybean (Glycine max); 31 g ai/ha, scale 0 to 100): 55
- Soybean plant response rating (soybean (Glycine max); 62 g ai/ha): 60
- Soybean plant response rating (soybean (Glycine max); 125 g ai/ha): 55
- Plant response rating, Oilseed Rape ([10]; 16 g ai/ha, scale of 0 to 100): 70
- Plant response rating, Oilseed Rape ([10]; 31 g ai/ha, scale 0 to 100): 85
- Oilseed Rape plant response rating ([10]; 62 g ai/ha): 95
- Oilseed Rape plant response rating ([10]; 125 g ai/ha): 100
- Plant response rating, Morningglory ([11]; 16 g ai/ha, scale of 0 to 100): 10
- Plant response rating, Morningglory ([11]; 31 g ai/ha, scale 0 to 100): 55
- Morningglory plant response rating ([11]; 62 g ai/ha): 65
- Morningglory plant response rating ([11]; 125 g ai/ha): 65
- Plant response rating, Corn (corn (Zea mays); 16 g ai/ha, scale of 0 to 100): 15
- Plant response rating, Corn (corn (Zea mays); 31 g ai/ha, scale 0 to 100): 20
- Corn plant response rating (corn (Zea mays); 62 g ai/ha): 25
- Corn plant response rating (corn (Zea mays); 125 g ai/ha): 30
- Plant response rating, Ragweed ([12]; 16 g ai/ha, scale of 0 to 100): 0
- Plant response rating, Ragweed ([12]; 31 g ai/ha, scale 0 to 100): 30
- Ragweed plant response rating ([12]; 62 g ai/ha): 35
- Ragweed plant response rating ([12]; 125 g ai/ha): 75
- Plant response rating, Nutsedge, Yellow ([13]; 16 g ai/ha, scale of 0 to 100): 0
- Plant response rating, Nutsedge, Yellow ([13]; 31 g ai/ha, scale 0 to 100): 0
- Nutsedge, Yellow plant response rating ([13]; 62 g ai/ha): 10
- Nutsedge, Yellow plant response rating ([13]; 125 g ai/ha): 30
- Plant response rating, Galium ([14]; 16 g ai/ha, scale of 0 to 100): 65
- Plant response rating, Galium ([14]; 31 g ai/ha, scale 0 to 100): 80
- Galium plant response rating ([14]; 62 g ai/ha): 80
- Galium plant response rating ([14]; 125 g ai/ha): 85
- Plant response rating, Surinam Grass ([15]; 31 g ai/ha, scale 0 to 100): 65
- Plant response rating, Surinam Grass ([15]; 62 g ai/ha, scale 0 to 100): 65
- Plant response rating, Surinam Grass ([15]; 125 g ai/ha, scale of 0 to 100): 75
- Plant response rating, Poinsettia, Wild ([16]; 31 g ai/ha, scale 0 to 100): 0
- Plant response rating, Poinsettia, Wild ([16]; 62 g ai/ha, scale 0 to 100): 5
- Plant response rating, Poinsettia, Wild ([16]; 125 g ai/ha, scale of 0 to 100): 50
- Plant response rating, Pigweed, Palmer ([17]; 31 g ai/ha, scale 0 to 100): 60
- Plant response rating, Pigweed, Palmer ([17]; 62 g ai/ha, scale 0 to 100): 100
- Plant response rating, Pigweed, Palmer ([17]; 125 g ai/ha, scale of 0 to 100): 100
- Plant response rating, Windgrass ([18]; 31 g ai/ha, scale 0 to 100): 100
- Plant response rating, Windgrass ([18]; 62 g ai/ha, scale 0 to 100): 100
- Plant response rating, Windgrass ([18]; 125 g ai/ha, scale of 0 to 100): 100
